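1) Cells in 96-well plates. 2) Compound, 48 h, 5 concentrations. 3) Linear interpolation between surrounding doses. 4) Unreached endpoint = highest concentration. Here, GI50 denotes the concentration required for 50% inhibition of growth.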 Activity calls are given as the source filed them. Rule as the data show it: active = GI50 up to about 1.1 µM and inactive = higher.
Legend:
Assay in all cases: DTP human tumour cell line panel, 48 h
HOP-92 = test system: HOP-92
HOP-62 = test system: HOP-62
UACC-257 = test system: UACC-257
NCI-H226 = test system: NCI-H226
SK-MEL-5 = test system: SK-MEL-5
HCC 2998 = test system: HCC 2998
BT-549 = test system: BT-549
SNB-75 = test system: SNB-75
U-251 = test system: U-251
Hs-578T = test system: Hs-578T
T47D = test system: T47D
RXF 393 = test system: RXF 393
NCI-H23 = test system: NCI-H23
DU-145 = test system: DU-145
SF-295 = test system: SF-295
MDA-MB-435 = test system: MDA-MB-435
HL-60 = test system: HL-60
SF-268 = test system: SF-268
NCI/ADR-RES = test system: NCI/ADR-RES
HCT-15 = test system: HCT-15
SK-MEL-28 = test system: SK-MEL-28
LOX IMVI = test system: LOX IMVI
HT-29 = test system: HT-29
M14 = test system: M14
HCT-116 = test system: HCT-116
KM12 = test system: KM12
ACHN = test system: ACHN
786-0 = test system: 786-0
NCI-H522 = test system: NCI-H522
EKVX = test system: EKVX
SK-OV-3 = test system: SK-OV-3
A498 = test system: A498
OVCAR-5 = test system: OVCAR-5
MDA-MB-231 = test system: MDA-MB-231
RPMI-8226 = test system: RPMI-8226
A549 = test system: A549
K562 = test system: K562
OVCAR-3 = test system: OVCAR-3
Malme-3M = test system: Malme-3M
NCI-H460 = test system: NCI-H460
UACC-62 = test system: UACC-62
SN12C = test system: SN12C
SW-620 = test system: SW-620
TK-10 = test system: TK-10
IGROV-1 = test system: IGROV-1
MDA-N = test system: MDA-N
PC-3 = test system: PC-3
OVCAR-4 = test system: OVCAR-4
COLO 205 = test system: COLO 205
UO-31 = test system: UO-31
CCRF-CEM = test system: CCRF-CEM
SNB-19 = test system: SNB-19
CAKI-1 = test system: CAKI-1
OVCAR-8 = test system: OVCAR-8
MCF7 = test system: MCF7
MOLT-4 = test system: MOLT-4

**Q.** `CC(C)CCC[C@@H](C)[C@H]1CC[C@H]2[C@@H]3CC[C@H]4C[C@H](N)CC[C@]4(C)[C@H]3CC[C@]12C` was tested. Which GI50 (HOP-92) did it give?
**A.** 11.7 µM (inactive)

**Q.** And the GI50 (HOP-62)?
**A.** 20 µM (inactive)

**Q.** And the GI50 (UACC-257)?
**A.** 19 µM (inactive)

**Q.** What about the GI50 (NCI-H226) of the same compound?
**A.** 17.3 µM (inactive)

**Q.** And the GI50 (SK-MEL-5)?
**A.** 21.5 µM (inactive)

**Q.** What about the GI50 (HCC 2998) of the same compound?
**A.** 16.4 µM (inactive)

**Q.** What about the GI50 (BT-549) of the same compound?
**A.** 23.1 µM (inactive)

**Q.** What about the GI50 (SNB-75) of the same compound?
**A.** 18.5 µM (inactive)

**Q.** What about the GI50 (U-251) of the same compound?
**A.** 13.8 µM (inactive)

**Q.** What about the GI50 (Hs-578T) of the same compound?
**A.** 20 µM (inactive)

**Q.** What about the GI50 (T47D) of the same compound?
**A.** 34.4 µM (inactive)

**Q.** What about the GI50 (RXF 393) of the same compound?
**A.** 22.2 µM (inactive)

**Q.** What about the GI50 (NCI-H23) of the same compound?
**A.** 26.1 µM (inactive)

**Q.** And the GI50 (DU-145)?
**A.** 16.4 µM (inactive)

**Q.** What about the GI50 (SF-295) of the same compound?
**A.** 19.3 µM (inactive)

**Q.** And the GI50 (MDA-MB-435)?
**A.** 27.1 µM (inactive)

**Q.** What about the GI50 (HL-60) of the same compound?
**A.** 3.34 µM (inactive)

**Q.** And the GI50 (SF-268)?
**A.** 26 µM (inactive)

**Q.** What about the GI50 (NCI/ADR-RES) of the same compound?
**A.** 26.7 µM (inactive)

**Q.** And the GI50 (HCT-15)?
**A.** 24.8 µM

**Q.** What about the GI50 (SK-MEL-28) of the same compound?
**A.** 28.3 µM (inactive)

**Q.** What about the GI50 (LOX IMVI) of the same compound?
**A.** 21.3 µM (inactive)

**Q.** What about the GI50 (HT-29) of the same compound?
**A.** 18.3 µM (inactive)

**Q.** What about the GI50 (M14) of the same compound?
**A.** 13.8 µM (inactive)

**Q.** What about the GI50 (HCT-116) of the same compound?
**A.** 30.1 µM (inactive)

**Q.** What about the GI50 (KM12) of the same compound?
**A.** 23.6 µM (inactive)

**Q.** And the GI50 (ACHN)?
**A.** 17.5 µM (inactive)

**Q.** What about the GI50 (786-0) of the same compound?
**A.** 20.4 µM (inactive)

**Q.** And the GI50 (NCI-H522)?
**A.** 21 µM (inactive)

**Q.** And the GI50 (EKVX)?
**A.** 17.7 µM (inactive)

**Q.** And the GI50 (SK-OV-3)?
**A.** 22.6 µM (inactive)

**Q.** What about the GI50 (A498) of the same compound?
**A.** 22.2 µM (inactive)

**Q.** And the GI50 (OVCAR-5)?
**A.** 15.4 µM (inactive)

**Q.** What about the GI50 (MDA-MB-231) of the same compound?
**A.** 2.84 µM (inactive)

**Q.** And the GI50 (RPMI-8226)?
**A.** 20.7 µM (inactive)

**Q.** And the GI50 (A549)?
**A.** 16.9 µM (inactive)

**Q.** And the GI50 (K562)?
**A.** 24.5 µM (inactive)

**Q.** What about the GI50 (OVCAR-3) of the same compound?
**A.** 26.6 µM (inactive)

**Q.** And the GI50 (Malme-3M)?
**A.** 17.2 µM (inactive)

**Q.** What about the GI50 (NCI-H460) of the same compound?
**A.** 22 µM (inactive)

**Q.** And the GI50 (UACC-62)?
**A.** 19.2 µM (inactive)

**Q.** And the GI50 (SN12C)?
**A.** 22.9 µM (inactive)

**Q.** And the GI50 (SW-620)?
**A.** 31.6 µM (inactive)

**Q.** What about the GI50 (TK-10) of the same compound?
**A.** 16.6 µM (inactive)

**Q.** What about the GI50 (IGROV-1) of the same compound?
**A.** 11.3 µM (inactive)

**Q.** And the GI50 (MDA-N)?
**A.** 30.9 µM (inactive)

**Q.** And the GI50 (PC-3)?
**A.** 5.87 µM (inactive)

**Q.** What about the GI50 (OVCAR-4) of the same compound?
**A.** 21.9 µM (inactive)

**Q.** What about the GI50 (COLO 205) of the same compound?
**A.** 21 µM (inactive)

**Q.** And the GI50 (UO-31)?
**A.** 13.5 µM (inactive)

**Q.** And the GI50 (CCRF-CEM)?
**A.** 2.83 µM (inactive)

**Q.** What about the GI50 (SNB-19) of the same compound?
**A.** 15.6 µM (inactive)

**Q.** And the GI50 (CAKI-1)?
**A.** 16.4 µM (inactive)

**Q.** And the GI50 (OVCAR-8)?
**A.** 24.4 µM (inactive)

**Q.** And the GI50 (MCF7)?
**A.** 23.8 µM (inactive)

**Q.** And the GI50 (MOLT-4)?
**A.** 11.3 µM (inactive)

From ChEMBL document CHEMBL1201862, “PubChem BioAssay data set” (2004)
